The text below walks through data of ChEMBL document CHEMBL1143505, “Synthesis and pharmacological investigation of novel 1-substituted-4-phenyl-1,2,4-triazolo[4,3-a]quinazolin-5(4H)-ones as a new class of H1-antihistaminic agents” (2005).

The species entered for one experiment is Cavia porcellus. Description: Percentage reduction central nervous system depression in guinea pig by compound.
In the case of `O=C(O)COCCN1CCN(C(c2ccccc2)c2ccc(Cl)cc2)CC1` (centres undefined) [CETIRIZINE], the Depression amounted to 8.5%.

As for `O=c1c2ccccc2n2c(CCl)nnc2n1-c1ccccc1`, the Depression is listed as 3.7%.

In turn, `O=c1c2ccccc2n2cnnc2n1-c1ccccc1` registered a Depression of 4.2%.

`CCc1nnc2n(-c3ccccc3)c(=O)c3ccccc3n12` returned a Depression of 5.3%.

`CN(C)CCC(c1ccc(Cl)cc1)c1ccccn1.O=C(O)/C=C\C(=O)O` (centres undefined) [CHLORPHENIRAMINE MALEATE] registered a Depression of 26%.

The compound `Cc1nnc2n(-c3ccccc3)c(=O)c3ccccc3n12` displayed a Depression of 4.8%.

On to `CCCc1nnc2n(-c3ccccc3)c(=O)c3ccccc3n12`, for which the Depression is listed as 7.3%.

Another experiment is filed under the species Cavia porcellus. Description: Percentage protection of guinea pigs from histamine induced bronchospasm by compound. Set-up: concentration or dose not given beside the values.
In the case of `O=C(O)COCCN1CCN(C(c2ccccc2)c2ccc(Cl)cc2)CC1` (centres undefined) [CETIRIZINE], the Protection came to 78.9%.

As to `O=c1c2ccccc2n2c(CCl)nnc2n1-c1ccccc1`, the Protection is recorded as 68.7%.

With `O=c1c2ccccc2n2cnnc2n1-c1ccccc1`, the Protection amounted to 69.9%.

As to `CCc1nnc2n(-c3ccccc3)c(=O)c3ccccc3n12`, the Protection was 70%.

For `CN(C)CCC(c1ccc(Cl)cc1)c1ccccn1.O=C(O)/C=C\C(=O)O` (centres undefined) [CHLORPHENIRAMINE MALEATE], the Protection is 71%.

As to `Cc1nnc2n(-c3ccccc3)c(=O)c3ccccc3n12`, the Protection stood at 70.7%.

Regarding `CCCc1nnc2n(-c3ccccc3)c(=O)c3ccccc3n12`, the Protection stood at 69.2%.
